Our source for the IC50 values is ChEMBL document CHEMBL4680137, “Synthesis and biological evaluation of some novel 1,2,3-triazole hybrids of myrrhanone B isolated from Commiphora mukul gum resin: Identification of potent antiproliferative leads active against prostate cancer cells (PC-3)” (Eur J Med Chem, 2020).

For orientation: IC50 means the point on the concentration scale where inhibition reaches its midpoint.

In one experiment the test system is HT-29. In words: Antiproliferative activity against human HT-29 cells assessed as reduction in cell viability after 48 hrs by MTT assay. It counts as functional, cell-based. Particulars: HT-29, 48 h. A general note: Tetrazolium dyes change colour on reduction, which living cells bring about.
The subject of the next experiment is PC-3. As to the kind of experiment: Antiproliferative activity against human PC3 cells assessed as reduction in cell viability after 48 hrs by MTT assay. It counts as functional, cell-based. Particulars: PC-3, 48 h.
The test system of a further experiment is L132. In words: Cytotoxicity against human L132 cells assessed as reduction in cell viability after 48 hrs by MTT assay. It counts as cell-based. The conditions noted are these: L132, 48 h.
For the next experiment, the system named is A549. In words: Antiproliferative activity against human A549 cells assessed as reduction in cell viability after 48 hrs by MTT assay. The experiment is classed as functional, cell-based. The conditions noted are these: A549, 48 h.
A further experiment concerns SiHa. As to the kind of experiment: Antiproliferative activity against human SiHa cells assessed as reduction in cell viability after 48 hrs by MTT assay. The experiment is classed as functional, cell-based.
The next experiment deals with DU-145. In words: Antiproliferative activity against human DU-145 cells assessed as reduction in cell viability after 48 hrs by MTT assay. It counts as functional, cell-based. The conditions noted are these: DU-145, 48 h.
The nature of experiment [1]: Inhibition of LPS-induced TNF-alpha expression in human U-937 cells preincubated for 1 hr followed by LPS addition and measured after 24 hrs by ELISA. The experiment is classed as functional, cell-based. (In general: In an ELISA, binding on a coated surface is turned into a signal by an enzyme label.)
A short description of experiment [2]: Inhibition of Saccharomyces cerevisiae alpha-glucosidase using p-nitophenyl alpha […]D-glucoside incubated for 45 mins.
The subject of the next experiment is MDA-MB-231. As to the kind of experiment: Antiproliferative activity against human MDA-MB-231 cells assessed as reduction in cell viability after 48 hrs by MTT assay. The experiment is classed as functional, cell-based. The conditions noted are these: MDA-MB-231, 48 h.
A short description of experiment [3]: Inhibition of LPS-induced IL-1beta expression in human U-937 cells preincubated for 1 hr followed by LPS addition and measured after 24 hrs by ELISA. It counts as functional, cell-based.
Another experiment relates to U-87 MG. In words: Antiproliferative activity against human U87 cells assessed as reduction in cell viability after 48 hrs by MTT assay. It counts as functional, cell-based, U-87MG ATCC.

On to `C/C(=C\CC/C(C)=C/CC[C@@H]1[C@@]2(C)CCC(=O)C(C)(C)[C@H]2CC[C@@]1(C)O)CC/C=C(\C)C(=O)O`, for which the IC50 was 56.6 µM in the experiment with HT-29; 40.7 µM in the experiment with PC-3; greater than 150 µM with L132; greater than 150 µM in the experiment with A549; 96.7 µM in the experiment with SiHa; greater than 150 µM with DU-145. Besides, the IC50 in experiment [1] is 15.6 µM; in [2] it was 167 µM; in the experiment on MDA-MB-231, 90.5 µM.
On to `C/C(=C\CC/C(C)=C/CC[C@@H]1[C@@]2(C)CCC(=O)C(C)(C)[C@H]2CC[C@@]1(C)O)CC/C=C(\C)C(=O)OCc1cn(-c2ccc(F)c(Cl)c2)nn1`, for which the IC50 was 22.9 µM in the experiment with PC-3; greater than 150 µM with L132; greater than 150 µM with A549; 15.8 µM in experiment [3]; greater than 150 µM in the experiment with DU-145; 7.83 µM in [1]. For the same compound, 10.1 µM corresponded to half-maximal inhibition in experiment [2] (IC50).
For `C/C(=C\CC/C(C)=C/CC[C@@H]1[C@@]2(C)CCC(=O)C(C)(C)[C@H]2CC[C@@]1(C)O)CC/C=C(\C)C(=O)OCc1cn(-c2cccc(Cl)c2)nn1`, the IC50 was 94.2 µM with L132; 147 µM with A549; 111 µM in the experiment with SiHa; 103 µM in the experiment on DU-145; 7.91 µM in experiment [2]; 91.8 µM in the experiment on U-87 MG. Moreover, the IC50 in the experiment with MDA-MB-231 is 103 µM.
Turning to `C/C(=C\CC/C(C)=C/CC[C@@H]1[C@@]2(C)CCC(=O)C(C)(C)[C@H]2CC[C@@]1(C)O)CC/C=C(\C)C(=O)OCc1cn(-c2ccccc2)nn1`, the IC50 in the experiment with L132 was greater than 150 µM; in the experiment on A549, greater than 150 µM; in experiment [3] it was 9.87 µM; in the experiment on SiHa, 149 µM; with DU-145, 95.5 µM; in experiment [1] it was 9.3 µM. For the same compound, the concentration for half-maximal inhibition (IC50) was 43.5 µM in [2] and greater than 150 µM in the experiment on MDA-MB-231.
Take `C#CCOC(=O)/C(C)=C/CC/C(C)=C/CC/C(C)=C/CC[C@@H]1[C@@]2(C)CCC(=O)C(C)(C)[C@H]2CC[C@@]1(C)O`: the IC50 in the experiment on HT-29 was 27.4 µM; in the experiment with PC-3, 18.9 µM; in the experiment with A549 it was 45.1 µM; in the experiment with DU-145 it was 46.1 µM; with U-87 MG it was greater than 150 µM; with MDA-MB-231, 114 µM.
For the compound `COc1cccc2c1C(=O)c1c(O)c3c(c(O)c1C2=O)C[C@@](O)(C(=O)CO)C[C@@H]3O[C@H]1C[C@H](N)[C@H](O)[C@H](C)O1` [DOXORUBICIN], the 50% inhibitory concentration (IC50) in the experiment with HT-29 came out at 0.082 µM; in the experiment with PC-3, 5.05 µM; in the experiment with L132, 0.01 µM; in the experiment on A549 it was 2.58 µM; in the experiment with SiHa, 0.311 µM; in the experiment with DU-145, 3.11 µM. Further, the half-inhibitory concentration (IC50) is 5.94 µM in the experiment on U-87 MG and 0.034 µM with MDA-MB-231.
For the compound `C/C(=C\CC/C(C)=C/CC[C@@H]1[C@@]2(C)CCC(=O)C(C)(C)[C@H]2CC[C@@]1(C)O)CC/C=C(\C)C(=O)OCc1cn(-c2cccc([N+](=O)[O-])c2)nn1`, the IC50 was 24.8 µM in the experiment with PC-3; greater than 150 µM in the experiment with A549; greater than 150 µM with DU-145; 2.77 µM in experiment [2]; 134 µM with U-87 MG.
As to `C/C(=C\CC/C(C)=C/CC[C@@H]1[C@@]2(C)CCC(=O)C(C)(C)[C@H]2CC[C@@]1(C)O)CC/C=C(\C)C(=O)OCc1cn([C@@H]2C[C@@H](n3cc(C)c(=O)[nH]c3=O)O[C@H]2CO)nn1`, the IC50 with HT-29 amounted to 55.6 µM; in the experiment on PC-3 it was 18.9 µM; in the experiment on L132 it was 115 µM; in the experiment on A549, 35 µM; in experiment [3] it was 9.12 µM; in the experiment with SiHa, 41.7 µM. The IC50 in the experiment with DU-145 is 13.8 µM; in [1], 8.34 µM; with U-87 MG, greater than 150 µM; in the experiment on MDA-MB-231, 38 µM.
